Experimental findings from publication PMC11030672 (Cancer Immunology, Immunotherapy : CII, 2008) are described below.

Experiment [1] relates to HLA-A3. Description: Assembly assay for peptide binding to MHC class I molecules. The note with it: T2-A3 cells.
The test system of experiment [2] is T2-A3 cells. Description: 51Cr-release cytotoxicity of T cell clone 9 against peptide-pulsed T2-A3 cells. The experiment is classed as cell-based. The settings on record: peptide 10 μM; E:T ratios 9:1, 3:1, 1:1, 0,3:1; duplicates.
Experiment [3] relates to HLA-A3+ melanoma cell line FM3. Description: 51Cr-release cytotoxicity of clone 9 against FM3 melanoma cells. The experiment is classed as cell-based. The settings on record: unlabeled T2-A3 cells pulsed with 10 μM peptide; inhibitor to target ratio 20:1; Fig. 4b, c.

As to “ILRGSVAHK [Influenza NP265–273, reference compound]”, the “binding to HLA-A3 (in words)” value in experiment [1] is reported as “high affinity”.
With RAGLQVRKNK [Rho1], the “binding to HLA-A3 (in words)” value in experiment [1] was “only bound very weakly to HLA-A3”. For the same sequence, in experiment [2], the “lysis of peptide-pulsed T2-A3 cells by clone 9” value is reported as “effectively lysed”.
As for RLGLQVRKNK [Rho1L2], the “binding to HLA-A3 (in words)” value in experiment [1] is given as “bound with intermediate affinity”. The “lysis of peptide-pulsed T2-A3 cells by clone 9” value in experiment [2] was “effectively lysed”. In addition, the “cold target inhibition of FM3 killing by clone 9” value in experiment [3] is reported as “completely abrogated the killing of FM3 melanoma cells”.
